Test results: patent publication US20210179680A1, “POLYPEPTIDE, DERIVATIVES THEREOF, AND APPLICATION THEREOF IN PREPARATION OF DRUGS HAVING RESISTANCE TO PULMONARY FIBROSIS” (priority 2016, published 2021)
Bridge positions count the residues as written; N and C are the ends. Square brackets hold non-standard residues; d marks the D form. Peptide text beside a SMILES is read from it. S5 = C=CCCC[C@](C)(N)C(=O)O

System: mice with bleomycin-induced pulmonary fibrosis
Assay: Pulmonary function (Flexivent) in mice with pulmonary fibrosis
Format: in vivo, C57BL/6 mice
Conditions: 2 mg/kg i.p.
Experimental: Male C57BL/6 mice were fasted overnight, then anesthetized with 45 mg/kg sodium pentobarbital by injection intraperitoneally (i.p.), and intratracheally injected with bleomycin at a dose of 3 U/kg. The specific operation steps are as follows: cut the neck skin of the mouse with as little trauma as possible, expose the trachea with the assistance of elbow ophthalmic forceps, puncture the trachea and inject about 50 μL of bleomycin into the trachea with a microsyringe, rotate the mouse quickly and stand it upright for 5 minutes in order to make bleomycin evenly enter the left and right lobe, thereby constructing an animal model. The whole operation was performed at a surgical table at about […]. Mice in the sham operation group were intratracheally injected with an equal amount of physiological saline for injection.
(§1) Pulmonary function is a gold indicator for clinical detection of pulmonary fibrosis in patients. The decline of lung function is generally accompanied by an aggravation of fibrosis, while the improvement of lung function generally represents the recovery of lung tissue structure. Pulmonary fibrosis models were prepared according to the method described in Example 2 and administered in groups according to Table 3. On the 28th day after the construction of the animal model, the mice were anesthetized with sodium pentobarbital (45 mg/kg, i.p.). Lung function was tested by the Flexivent Small-animal respiratory mechanics and the testing methods were TLC and SnapShots (Testing method refers to Lv X, Wang X, Li K, et al. Rupatadine Protects against Pulmonary Fibrosis by Attenuating PAF-Mediated Senescence in Rodents [J]. PloS one, 2013, 8(7): e68631).
as §1, with “lung function also generally represents” for “lung function generally represents”, “to Table 9. 28 days later, the mice” for “to Table 3. On the 28th day after the construction of the animal model, the mice”, “Senescence in Rodents[J]. PloS one,” for “Senescence in Rodents [J]. PloS one,”

[1] = Table 3 groups, 28th day after model construction

Row | Compound | Dynamic compliance (mL/cmH2O) [1] | Dynamic elasticity (cmH2O./mL) [1] | Dynamic resistance (cmH2O · s/Ml) [1] | Inspiratory capacity [1] | pulmonary function of mice with pulmonary fibrosis (in words) (Table 3 groups, FIG. 11) | Dynamic compliance (mL/cmH2O) (Table 9 groups, 28 days later) | Dynamic elasticity (cmH2O./mL) (Table 9 groups, 28 days later) | Dynamic resistance (cmH2O · s/Ml) (Table 9 groups, 28 days later) | Inspiratory capacity (Table 9 groups, 28 days later) | pulmonary function of mice with pulmonary fibrosis (in words) (Table 9 groups, FIG. 17)
1 | CSCC[C@H](NC(=O)[C@H](CC(C)C)NC(=O)[C@@H](N)Cc1c[nH]cn1)C(=O)N[C@@H](C)C(=O)N[C@@H](CS)C(=O)N[C@@H](Cc1ccccc1)C(=O)N[C@H](C(=O)N[C@@]1(C)CCCC=CCCC[C@@](C)(C(=O)N[C@@H](CCCCN)C(=O)N[C@@H](CCCCN)C(=O)N[C@@H](CCCNC(=N)N)C(=O)O)NC(=O)[C@H](CCCCN)NC(=O)[C@H](CCCCN)NC(=O)[C@H](C)NC1=O)[C@@H](C)O [S8, His-Leu-Met-Ala-Cys-Phe-Thr-S5-Ala-Lys-Lys-S5-Lys-Lys-Arg] (H-HLMACFT[S5]AKK[S5]KKR-OH; staple 8-12; N-terminus and C-terminus assumed) | 0.2583 mL/cmH2O | 66.5 cmH2O./mL | 1.35 cmH2O · s/Ml | 0.626 mL | improved | – | – | – | – | –
2 | CSCC[C@H](NC(=O)[C@H](CC(C)C)NC(=O)[C@@H](N)Cc1c[nH]cn1)C(=O)N[C@@H](C)C(=O)N[C@@H](CS)C(=O)N[C@@H](Cc1ccccc1)C(=O)N[C@H](C(=O)N[C@@H](CS)C(=O)N[C@@H](C)C(=O)N[C@@]1(C)CCCC=CCCC[C@@](C)(C(=O)N[C@@H](CCCNC(=N)N)C(=O)O)NC(=O)[C@H](CCCCN)NC(=O)[C@H](CC(C)C)NC(=O)[C@H](CCCCN)NC1=O)[C@@H](C)O [S10, His-Leu-Met-Ala-Cys-Phe-Thr-Cys-Ala-S5-Lys-Leu-Lys-S5-Arg] (H-HLMACFTCA[S5]KLK[S5]R-OH; staple 10-14; N-terminus and C-terminus assumed) | 0.2333 mL/cmH2O | 49.5 cmH2O./mL | 1.367 cmH2O · s/Ml | 0.562 mL | improved | – | – | – | – | –
3 | CSCC[C@H](NC(=O)[C@H](CC(C)C)NC(=O)[C@@H](N)Cc1c[nH]cn1)C(=O)N[C@@H](C)C(=O)N[C@@H](CS)C(=O)N[C@@H](Cc1ccccc1)C(=O)N[C@@]1(C)CCCC=CCCC[C@@](C)(C(=O)N[C@@H](CC(C)C)C(=O)N[C@@H](CCCCN)C(=O)N[C@@H](CCCCN)C(=O)N[C@@H](CCCNC(=N)N)C(=O)O)NC(=O)[C@H](CCCCN)NC(=O)[C@H](C)NC(=O)[C@H](CS)NC1=O [S7, His-Leu-Met-Ala-Cys-Phe-S5-Cys-Ala-Lys-S5-Leu-Lys-Lys-Arg] (H-HLMACF[S5]CAK[S5]LKKR-OH; staple 7-11; N-terminus and C-terminus assumed) | 0.29 mL/cmH2O | 51 cmH2O./mL | 0.8833 cmH2O · s/Ml | 0.684 mL | improved | – | – | – | – | –
4 | CSCC[C@H](NC(=O)[C@H](CC(C)C)NC(=O)[C@@H](N)Cc1c[nH]cn1)C(=O)N[C@@]1(C)CCCC=CCCC[C@@](C)(C(=O)N[C@@H](C)C(=O)N[C@@H](CCCCN)C(=O)N[C@@H](CCCCN)C(=O)N[C@@H](CC(C)C)C(=O)N[C@@H](CCCCN)C(=O)N[C@@H](CCCCN)C(=O)N[C@@H](CCCNC(=N)N)C(=O)O)NC(=O)[C@H]([C@@H](C)O)NC(=O)[C@H](Cc2ccccc2)NC(=O)[C@H](CS)NC1=O [S4, His-Leu-Met-S5-Cys-Phe-Thr-S5-Ala-Lys-Lys-Leu-Lys-Lys-Arg] (H-HLM[S5]CFT[S5]AKKLKKR-OH; staple 4-8; N-terminus and C-terminus assumed) | 0.2617 mL/cmH2O | 59.33 cmH2O./mL | 1.267 cmH2O · s/Ml | 0.564 mL | improved | – | – | – | – | –
5 | S20: chimeric polypeptide TAT-MR2, amino acid sequence SEQ ID NO: 20 (YGRKKRRQRRRGGHLMACFTCAKKLKKR; chimeric polypeptide TAT-MR2 S20) | – | – | – | – | – | 0.264 mL/cmH2O | 52.17 cmH2O./mL | 1.588 cmH2O · s/Ml | 0.422 mL | improved
